Experiments:
IEC-6 cells = experiment: TNF-α/CHX-induced apoptosis, DNA fragmentation; format: cell-based, rat; settings: OTP 10 μM, LPA 1 μM, GRI977143 10 μM
Experimental: Confluent serum-starved IEC-6 cells were treated with or without TNF-α (10 ng/ml)/cycloheximide (CHX) (20 μg/ml) in the presence of OTP (10 μM), GRI977143 (10 μM), or LPA (1 μM) for 3 h. Cells were washed twice with PBS and the quantitative DNA fragmentation assay was carried out as described previously (Valentine et al., (S)—FTY720-vinylphosphonate, an analogue of the immunosuppressive agent FTY720, is a pan-antagonist of sphingosine 1-phosphate GPCR signaling and inhibits autotaxin activity. Cell Signal (2010) 22(10): 1543-1553).
Apoptotically-challenged cells were washed twice with PBS, and a quantitative DNA fragmentation assay was carried out using a Cell Death Detection ELISA PLUS kit (Roche Diagnostics, Penzberg, Germany) and normalized to protein concentration using the BCA Protein Assay Kit (Thermo Fisher Scientific, Inc.; Rockford, Ill.) as described previously (Valentine et al., 2010). Aliquots of nuclei-free cell lysate were placed in streptavidin-coated wells and incubated with anti-histone-biotin antibody and anti-DNA peroxidase-conjugated antibody for 2 h at room temperature. After the incubation, the sample was removed, and the wells were washed and incubated with 100 μl 2,2′-azino-di[3-ethylbenzthiazolin-sulfonate substrate at room temperature before the absorbance was read at 405 nm. Results were expressed as absorbance at 405 nm/min/mg protein as detailed in our previous report (Ray et al., Mdm2 inhibition induces apoptosis in p53 deficient human colon cancer cells by activating p73- and E2F1-mediated expression of PUMA and Siva-1. Apoptosis (2011) 16(1): 35-44).

LPA4 = target: T1, LPA4 (Homo sapiens, UniProt Q99677); experiment: LPA receptor-mediated Ca2+ mobilization assay, LPA4; format: cell-based; settings: for EC50: agonist, Ca2+ mobilization
T1 construct: expressed in transfected cells
T1 sequence (Q99677 whole entry, species assumed): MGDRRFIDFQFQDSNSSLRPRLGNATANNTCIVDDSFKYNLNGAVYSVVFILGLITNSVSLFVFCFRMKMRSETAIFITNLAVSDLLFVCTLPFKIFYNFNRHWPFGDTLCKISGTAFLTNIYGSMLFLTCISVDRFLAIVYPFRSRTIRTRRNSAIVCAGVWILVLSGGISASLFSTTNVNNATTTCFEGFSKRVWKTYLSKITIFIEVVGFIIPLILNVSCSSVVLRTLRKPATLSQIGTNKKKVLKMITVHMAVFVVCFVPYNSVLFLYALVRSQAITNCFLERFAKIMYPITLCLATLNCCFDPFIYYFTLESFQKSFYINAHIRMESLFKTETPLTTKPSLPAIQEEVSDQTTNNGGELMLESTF
Experimental: Similarity searches were performed separately using each fingerprint to quantitate similarity. Hits meeting the 80% similarity threshold from each search were ranked based on the Tanimoto coefficient measure of similarity to a target molecule NSC12404, and the top 75 unique hits from each fingerprint search were selected for further analysis. The 225 compounds selected for further analysis were clustered based on Tanimoto coefficients calculated using Molecular ACCess System-key fingerprints (MACCS keys) and evaluated using the diversity subset function implemented in MOE. This selected a diverse subset of 27 compounds for biological evaluation by choosing the middle compounds in each cluster. These 27 compounds were tested in Ca^2+ mobilization assays at a concentration of 10 μM using stable cell lines individually expressing LPA2 and also in vector-transfected control cells. Hits activating LPA2 were further tested using cells expressing the other established and putative LPA GPCRs. […] They arbitrarily selected GRI977143 for further characterization in cell-based assays.
J Biol Chem (2009) 284(25): 17304-17319). […] The cells were loaded with Fura-2-acetoxymethyl esther (Fura-2/AM) in Krebs buffer containing 0.01% pluronic acid for 30 min and rinsed with Krebs buffer before measuring Ca^2+ mobilization. The ratio of peak emissions at 510 nm after 2 min of ligand addition was determined for excitation wavelengths of 340 nm/380 nm. All samples were run in quadruplicate. […] The half maximally effective concentration (EC50), and inhibitory constant (Ki) values were calculated by fitting a sigmoid function to dose-response data points using KaleidaGraph software (version 4.1, Synergy Software; […]).
Mouse embryonic fibroblast (MEF) cells were isolated from E13.5 LPA1&2 double knockout (DKO) embryos. MEFs were transduced with empty vector or LPA2-containing lentiviruses and selected with 1.5 μg/ml puromycin. Cells were maintained in Dulbecco's modified Eagle medium (DMEM) supplemented with 10% (V/V) fetal bovine serum (FBS), 2 mM L-glutamine, 100 U/mL penicillin, and 100 μg/mL streptomycin. Serum-free medium contained 0.1% (W/V) BSA in DMEM. The rat intestinal epithelial cell line 6 (IEC-6) was obtained from the American Type Culture Collection (Rockville, Md.) at passage 13; passages 16-21 were used in all experiments. IEC-6 cells were maintained in a humidified 37° C. incubator in an atmosphere of 90% air and 10% CO2. Growth medium consisted of DMEM supplemented with 5% heat inactivated FBS, 10 μg/mL insulin, and 50 μg/mL gentamycin. The composition of the serum-starvation medium was the same as that of the full growth medium except that it contained no FBS. The McArdle rat hepatoma cell line (RH7777) stably expressing LPA2 receptors was a gift from Dr. Fumikazu Okajima (Gunma University, Maebashi, Japan). RH7777 cells stably expressing LPA1 or LPA3 receptors were generated in-house and had been characterized earlier. Wild type and LPA receptor (LPAR) stably transfected RH7777 cells were grown in DMEM supplemented with 10% FBS and 2 mM L-glutamine in the presence of 250 μg/ml G418. Chinese hamster ovary (CHO) cells stably expressing either vector or LPA4 receptor were a kind gift from Dr. Takao Shimizu (Tokyo University; Tokyo, Japan). Cells were cultured in Ham's F12 medium containing 10% FBS, 2 mM L-glutamine, and 350 μg/ml G418. Rat neuroblastoma cells (B103) were transduced with the lentivirus harboring wild type of FLAG-LPA5 and selected with puromycin to establish the stable cell lines. The stable cells were maintained in DMEM supplemented with 10% FBS and 0.4 μg/ml puromycin. GPR87- and P2Y10-expressing CHO cells and vector-transfected control cells were a gift from Dr. Norihisha Fujita (Ritsumeikan University; Shiga, Japan).

| Molecule | DNA fragmentation induced by TNF-α/CHX (IEC-6 cells) | inhibition of LPA4 Ca2+ response (LPA4; 10 μM, ~EC75 LPA 18:1) | LPA4 Imax (%) (LPA4; inhibition by 10 μM compound of ~EC75 LPA 18:1 Ca2+ response) | EC50 (LPA4) [µM] |
| --- | --- | --- | --- | --- |
| CCCCCCCC/C=C\CCCCCCCC(=O)OC[C@@H](O)COP(=O)(O)O [LPA 18:1, Lysophosphatidic acid (18:1)] | significantly reduced |  |  |  |
| O=C(O)c1cc(Cl)c(Cl)cc1C(=O)Nc1ccc2c(c1)C(=O)c1ccccc1-2 [Compound H2L5547924] |  | partially inhibited | 51 |  |
| O=C(O)c1ccccc1C(=O)Nc1ccc2c(c1)C(=O)c1ccccc1C2=O [Compound H2L5828102] |  |  |  | > 10 |
| O=C(O)c1ccccc1C(=O)Nc1ccc2c(c1)C(=O)c1ccccc1-2 [NSC12404] |  |  |  | > 10 |
| O=C(O)c1ccccc1SCCCN1C(=O)c2cccc3cccc(c23)C1=O [GRI977143] | significantly reduced |  |  | > 10 |
| octadecenyl thiophosphate [OTP] | completely blocked |  |  | 2 |
